Paper PMC5218480 (PLoS ONE, 2017)

Test system: MV-4-11 cells
Assay: Gene expression microarray analysis (Affymetrix PrimeView) and GSEA
Assay type: cell-based, human
Set-up: RFU PODN (11730768_x_at) / Fold change /veh PODN (11730768_x_at) / RFU LINC00158 (11744669_a_at) / Fold change /veh LINC00158 (11744669_a_at) / RFU DUSP10 (11751237_a_at) / Fold change /veh DUSP10 (11751237_a_at) / RFU ID3 (11757404_x_at) / Fold change /veh ID3 (11757404_x_at) / RFU PLEKHG5 (11737974_s_at) / Fold change /veh PLEKHG5 (11737974_s_at) / RFU LRRC4B (11730491_at) / Fold change /veh LRRC4B (11730491_at) / RFU GIMAP4 (11747438_a_at) / Fold change /veh GIMAP4 (11747438_a_at) / RFU KRT8 (11758183_x_at) / Fold change /veh KRT8 (11758183_x_at) / RFU CNN1 (11734310_a_at) / Fold change /veh CNN1 (11734310_a_at) / RFU VPS37D (11726825_at) / Fold change /veh VPS37D (11726825_at) / RFU C10orf10 (11716522_x_at) / Fold change /veh C10orf10 (11716522_x_at) / RFU KIR2DL2 /// KIR2DL4 /// KIR2DL5A /// KIR2DL5B /// KIR2DS1 /// KIR2DS2 /// KIR2DS3 /// KIR2DS4 /// KIR3DL3 /// KIR3DL3 /// KIR3DS1 (11738374_at) / Fold change /veh KIR2DL2 /// KIR2DL4 /// KIR2DL5A /// KIR2DL5B /// KIR2DS1 /// KIR2DS2 /// KIR2DS3 /// KIR2DS4 /// KIR3DL3 /// KIR3DL3 /// KIR3DS1 (11738374_at) / RFU C1QL1 (11718748_at) / Fold change /veh C1QL1 (11718748_at) / RFU TMPRSS4 (11747572_a_at) / Fold change /veh TMPRSS4 (11747572_a_at) / RFU HAMP (11756126_x_at) / Fold change /veh HAMP (11756126_x_at) / RFU RNFT2 (11725882_a_at) / Fold change /veh RNFT2 (11725882_a_at) / RFU NR4A2 (11747474_a_at) / Fold change /veh NR4A2 (11747474_a_at) / RFU ABCC12 (11746883_a_at) / Fold change /veh ABCC12 (11746883_a_at) / RFU TMEM136 (11760407_x_at) / Fold change /veh TMEM136 (11760407_x_at) / RFU CLDN22 /// WWC2 (11732394_at) / Fold change /veh CLDN22 /// WWC2 (11732394_at) / RFU HLA-DPB1 (11760878_x_at) / Fold change /veh HLA-DPB1 (11760878_x_at) / RFU SPINT1 (11716480_a_at) / Fold change /veh SPINT1 (11716480_a_at) / RFU GAP43 (11754022_s_at) / Fold change /veh GAP43 (11754022_s_at) / RFU A4GNT (11735810_at) / Fold change /veh A4GNT (11735810_at) / RFU PRB3 (11715151_x_at) / Fold change /veh PRB3 (11715151_x_at) / RFU TUBB4B (11761932_at) / Fold change /veh TUBB4B (11761932_at) / RFU CAPN14 (11732068_a_at) / Fold change /veh CAPN14 (11732068_a_at) / RFU TMCC2 (11721928_a_at) / Fold change /veh TMCC2 (11721928_a_at) / RFU IRGQ (11745062_a_at) / Fold change /veh IRGQ (11745062_a_at) / RFU FAM174B (11720279_a_at) / Fold change /veh FAM174B (11720279_a_at) / RFU TMPRSS4 (11748680_a_at) / Fold change /veh TMPRSS4 (11748680_a_at) / RFU FAM212B (11763350_a_at) / Fold change /veh FAM212B (11763350_a_at) / RFU PLEKHG5 (11743358_a_at) / Fold change /veh PLEKHG5 (11743358_a_at) / RFU ZSCAN30 (11745921_a_at) / Fold change /veh ZSCAN30 (11745921_a_at) / RFU CMKLR1 (11741424_a_at) / Fold change /veh CMKLR1 (11741424_a_at) / RFU LOC101060620 /// MAPK8IP1 (11723275_at) / Fold change /veh LOC101060620 /// MAPK8IP1 (11723275_at) / RFU SPTSSB (11747773_x_at) / Fold change /veh SPTSSB (11747773_x_at) / RFU PRSS12 (11739890_at) / Fold change /veh PRSS12 (11739890_at) / RFU BIN1 (11741810_x_at) / Fold change /veh BIN1 (11741810_x_at) / RFU WNT11 (11732464_a_at) / Fold change /veh WNT11 (11732464_a_at) / RFU C10orf10 (11716521_a_at) / Fold change /veh C10orf10 (11716521_a_at) / RFU C5orf56 (11738089_at) / Fold change /veh C5orf56 (11738089_at) / RFU CYB561 (11721691_x_at) / Fold change /veh CYB561 (11721691_x_at) / RFU ANKRD19P (11752326_a_at) / Fold change /veh ANKRD19P (11752326_a_at) / RFU OR2T12 /// OR2T33 /// OR2T8 (11738714_s_at) / Fold change /veh OR2T12 /// OR2T33 /// OR2T8 (11738714_s_at) / RFU VCAN (11748164_a_at) / Fold change /veh VCAN (11748164_a_at) / RFU JSRP1 (11732532_at) / Fold change /veh JSRP1 (11732532_at) / RFU KRTAP10-11 (11738290_x_at) / Fold change /veh KRTAP10-11 (11738290_x_at) / RFU MYO3A (11730013_a_at) / Fold change /veh MYO3A (11730013_a_at) / RFU EBF3 (11725865_a_at) / Fold change /veh EBF3 (11725865_a_at) / RFU CAMK2N1 (11719241_x_at) / Fold change /veh CAMK2N1 (11719241_x_at) / RFU C5orf56 (11738088_a_at) / Fold change /veh C5orf56 (11738088_a_at) / RFU OLFML3 (11715873_a_at) / Fold change /veh OLFML3 (11715873_a_at) / RFU LOC100653217 /// NTM (11731650_a_at) / Fold change /veh LOC100653217 /// NTM (11731650_a_at) / RFU MAPK11 (11762145_a_at) / Fold change /veh MAPK11 (11762145_a_at) / RFU FIZ1 (11724087_x_at) / Fold change /veh FIZ1 (11724087_x_at) / RFU OASL (11726364_x_at) / Fold change /veh OASL (11726364_x_at) / RFU SOX15 (11748057_x_at) / Fold change /veh SOX15 (11748057_x_at) / RFU CD79A (11719716_a_at) / Fold change /veh CD79A (11719716_a_at) / RFU HIST1H1D (11736915_at) / Fold change /veh HIST1H1D (11736915_at) / RFU CASKIN2 (11723855_a_at) / Fold change /veh CASKIN2 (11723855_a_at) / RFU LOC730098 (11760151_x_at) / Fold change /veh LOC730098 (11760151_x_at) / RFU OR4N2 (11742367_at) / Fold change /veh OR4N2 (11742367_at) / RFU PRRT2 (11749266_a_at) / Fold change /veh PRRT2 (11749266_a_at) / RFU SNX32 (11753110_a_at) / Fold change /veh SNX32 (11753110_a_at) / RFU CDHR5 (11726645_a_at) / Fold change /veh CDHR5 (11726645_a_at) / RFU RCAN1 (11760418_a_at) / Fold change /veh RCAN1 (11760418_a_at) / RFU FAM167A (11723789_a_at) / Fold change /veh FAM167A (11723789_a_at) / RFU FAM26E (11764081_at) / Fold change /veh FAM26E (11764081_at) / RFU ISYNA1 (11749810_s_at) / Fold change /veh ISYNA1 (11749810_s_at) / RFU ACY1 (11761880_at) / Fold change /veh ACY1 (11761880_at) / RFU 11764098_at / Fold change /veh 11764098_at / RFU SAMD14 (11745864_x_at) / Fold change /veh SAMD14 (11745864_x_at) / RFU NPB (11741838_a_at) / Fold change /veh NPB (11741838_a_at) / RFU TMPRSS6 (11731388_a_at) / Fold change /veh TMPRSS6 (11731388_a_at) / RFU KRTAP10-2 (11738614_at) / Fold change /veh KRTAP10-2 (11738614_at) / RFU ARHGAP8 /// PRR5-ARHGAP8 (11727945_x_at) / Fold change /veh ARHGAP8 /// PRR5-ARHGAP8 (11727945_x_at) / RFU KRTAP5-7 /// NADSYN1 (11734609_at) / Fold change /veh KRTAP5-7 /// NADSYN1 (11734609_at) / RFU RASL12 (11751679_a_at) / Fold change /veh RASL12 (11751679_a_at) / RFU CDKN2B (11736163_a_at) / Fold change /veh CDKN2B (11736163_a_at) / RFU PRF1 (11729649_at) / Fold change /veh PRF1 (11729649_at) / RFU, ZNF638 /// ZNF638-IT1 / Fold change vs veh, ZNF638 /// ZNF638-IT1 / RFU, PANK3 / Fold change vs veh, PANK3 / RFU, SH3YL1 / Fold change vs veh, SH3YL1 / RFU, ZEB2 / Fold change vs veh, ZEB2 / RFU, NRIP1 / Fold change vs veh, NRIP1 / RFU, PTTG1IP / Fold change vs veh, PTTG1IP / RFU, CAPN2 / Fold change vs veh, CAPN2 / RFU, MED14 / Fold change vs veh, MED14 / RFU, SNORA58 / Fold change vs veh, SNORA58 / RFU, C1orf63 / Fold change vs veh, C1orf63 / RFU, LRRFIP1 / Fold change vs veh, LRRFIP1 / RFU, NDUFAF7 / Fold change vs veh, NDUFAF7 / RFU, SLC12A2 / Fold change vs veh, SLC12A2 / RFU, IBTK / Fold change vs veh, IBTK / RFU, ESF1 / Fold change vs veh, ESF1 / Fold change vs veh, TMEM50B / RFU, TAOK1 / Fold change vs veh, TAOK1 / RFU, ACBD3 / Fold change vs veh, ACBD3 / RFU, TMA16 / Fold change vs veh, TMA16 / RFU, RWDD3 / Fold change vs veh, RWDD3 / RFU, BCAT1 / Fold change vs veh, BCAT1 / RFU, EDEM3 / Fold change vs veh, EDEM3 / RFU, TMEM33 / Fold change vs veh, TMEM33 / RFU, WDR75 / Fold change vs veh, WDR75 / RFU, AHCTF1 / Fold change vs veh, AHCTF1 / RFU, TFRC / Fold change vs veh, TFRC / RFU, ZDHHC17 / Fold change vs veh, ZDHHC17 / RFU, NOM1 / Fold change vs veh, NOM1 / RFU, ARL8B / Fold change vs veh, ARL8B / RFU, ZBTB11 / Fold change vs veh, ZBTB11 / RFU, TAMM41 / Fold change vs veh, TAMM41 / RFU, KIAA1704 /// LOC100996395 / Fold change vs veh, KIAA1704 /// LOC100996395 / RFU, ING1 / Fold change vs veh, ING1 / RFU, TRMT61B / Fold change vs veh, TRMT61B / RFU, FUBP3 / Fold change vs veh, FUBP3 / RFU, TP53 / Fold change vs veh, TP53 / RFU, TNKS2 / Fold change vs veh, TNKS2 / RFU, ZFP14 / Fold change vs veh, ZFP14 / RFU, ACTR2 / Fold change vs veh, ACTR2 / RFU, PPP3R1 / Fold change vs veh, PPP3R1 / RFU, PIK3R1 / Fold change vs veh, PIK3R1 / RFU, HNRNPA1 / Fold change vs veh, HNRNPA1 / RFU, RNF170 / Fold change vs veh, RNF170 / RFU, ZNF28 / Fold change vs veh, ZNF28 / RFU, RNGTT / Fold change vs veh, RNGTT / RFU, OGT / Fold change vs veh, OGT / RFU, BRD1 / Fold change vs veh, BRD1 / RFU, MARS / Fold change vs veh, MARS / RFU, ZNF655 / Fold change vs veh, ZNF655 / RFU, FAHD1 / Fold change vs veh, FAHD1 / RFU, BDP1 / Fold change vs veh, BDP1 / RFU, LRRCC1 / Fold change vs veh, LRRCC1 / RFU, ARID1A / Fold change vs veh, ARID1A / RFU, ZNF146 / Fold change vs veh, ZNF146 / RFU, ZNF330 / Fold change vs veh, ZNF330 / RFU, GPN3 / Fold change vs veh, GPN3 / RFU, C9orf123 / Fold change vs veh, C9orf123 / RFU, N4BP2L2 / Fold change vs veh, N4BP2L2 / RFU, ARFIP1 / Fold change vs veh, ARFIP1 / RFU, FAM179B / Fold change vs veh, FAM179B / RFU, BCL10 / Fold change vs veh, BCL10 / RFU, UHRF1BP1L / Fold change vs veh, UHRF1BP1L / RFU, BET1 / Fold change vs veh, BET1 / RFU, CNOT2 / Fold change vs veh, CNOT2 / RFU, ZNF268 / Fold change vs veh, ZNF268 / Fold change vs veh, ZNF507 / RFU, DGCR2 / Fold change vs veh, DGCR2 / RFU, WDSUB1 / Fold change vs veh, WDSUB1 / Fold change vs veh, HSP90B1 /// MIR3652 / RFU, ADSS / Fold change vs veh, ADSS / RFU, GK / Fold change vs veh, GK / RFU, ZNF148 / Fold change vs veh, ZNF148 / RFU, TAF9 / Fold change vs veh, TAF9 / RFU, SLC1A5 / Fold change vs veh, SLC1A5 / RFU, SLMO2 / Fold change vs veh, SLMO2 / RFU, ABCC4 / Fold change vs veh, ABCC4 / RFU, LOC101060439 /// RAP1B / Fold change vs veh, LOC101060439 /// RAP1B / RFU, RFX7 / Fold change vs veh, RFX7 / RFU, GTPBP10 / Fold change vs veh, GTPBP10 / RFU, CNEP1R1 / Fold change vs veh, CNEP1R1 / RFU, BIVM-ERCC5 /// ERCC5 / Fold change vs veh, BIVM-ERCC5 /// ERCC5 / RFU, ILF3 / Fold change vs veh, ILF3 / RFU 11762660_at / Fold change /veh 11762660_at / RFU VCAN (11757783_s_at) / Fold change /veh VCAN (11757783_s_at) / RFU DDX43 (11728927_at) / Fold change /veh DDX43 (11728927_at) / RFU KRT8 (11758188_x_at) / Fold change /veh KRT8 (11758188_x_at) / RFU NKD1 (11759106_at) / Fold change /veh NKD1 (11759106_at) / RFU SRD5A1 (11742802_a_at) / Fold change /veh SRD5A1 (11742802_a_at) / RFU TPSAB1 /// TPSB2 (11721975_s_at) / Fold change /veh TPSAB1 /// TPSB2 (11721975_s_at) / RFU GSTM3 (11746129_a_at) / Fold change /veh GSTM3 (11746129_a_at) / RFU IL23R (11737362_x_at) / Fold change /veh IL23R (11737362_x_at) / RFU TMEM51 (11727254_a_at) / Fold change /veh TMEM51 (11727254_a_at) / RFU PIWIL2 (11732686_x_at) / Fold change /veh PIWIL2 (11732686_x_at) / RFU ORM1 (11744905_x_at) / Fold change /veh ORM1 (11744905_x_at) / RFU CCDC152 (11743942_at) / Fold change /veh CCDC152 (11743942_at) / RFU ECM1 (11717891_a_at) / Fold change /veh ECM1 (11717891_a_at) / RFU IL23R (11748794_a_at) / Fold change /veh IL23R (11748794_a_at) / RFU TNFAIP8L3 (11732012_x_at) / Fold change /veh TNFAIP8L3 (11732012_x_at) / RFU MBOAT4 (11741988_at) / Fold change /veh MBOAT4 (11741988_at) / RFU 11764193_at / Fold change /veh 11764193_at / RFU TMEM53 (11763286_at) / Fold change /veh TMEM53 (11763286_at) / RFU MAGEB2 (11727129_at) / Fold change /veh MAGEB2 (11727129_at) / RFU TMEM200A (11744735_a_at) / Fold change /veh TMEM200A (11744735_a_at) / RFU CCDC152 (11751479_a_at) / Fold change /veh CCDC152 (11751479_a_at) / RFU FAM211A (11726209_a_at) / Fold change /veh FAM211A (11726209_a_at) / RFU RGS16 (11746705_a_at) / Fold change /veh RGS16 (11746705_a_at) / RFU VCAN (11755009_s_at) / Fold change /veh VCAN (11755009_s_at) / RFU RHOB (11743442_s_at) / Fold change /veh RHOB (11743442_s_at) / RFU RGS16 (11720943_a_at) / Fold change /veh RGS16 (11720943_a_at) / RFU RGS16 (11720944_at) / Fold change /veh RGS16 (11720944_at) / RFU, VPS4B / Fold change vs veh, VPS4B / RFU, CREB1 / Fold change vs veh, CREB1 / RFU, DNAJC13 / Fold change vs veh, DNAJC13 / RFU, GNAQ / Fold change vs veh, GNAQ / RFU, CDK5R1 / Fold change vs veh, CDK5R1 / RFU, ZRANB3 / Fold change vs veh, ZRANB3 / RFU, CUL4A / Fold change vs veh, CUL4A / RFU, CCNY / Fold change vs veh, CCNY / RFU, UFL1 / Fold change vs veh, UFL1 / RFU, COG3 / Fold change vs veh, COG3 / RFU, DIAPH2 / Fold change vs veh, DIAPH2 / RFU, SKA2 / Fold change vs veh, SKA2 / RFU, AFF3 / Fold change vs veh, AFF3 / RFU, LMF1 / Fold change vs veh, LMF1 / RFU, IPO11 / Fold change vs veh, IPO11 / RFU, DFFB / Fold change vs veh, DFFB / RFU, FOXP1 / Fold change vs veh, FOXP1 / RFU, CARD8 / Fold change vs veh, CARD8 / RFU, STRN3 / Fold change vs veh, STRN3 / RFU, ADK / Fold change vs veh, ADK / RFU, RASSF2 / Fold change vs veh, RASSF2 / RFU, WIPF1 / Fold change vs veh, WIPF1 / RFU, LARP1B / Fold change vs veh, LARP1B / RFU, RASA1 / Fold change vs veh, RASA1 / RFU, RB1 / Fold change vs veh, RB1 / RFU, PPFIA1 / Fold change vs veh, PPFIA1 / RFU, MAT2A / Fold change vs veh, MAT2A / RFU, CCT5 / Fold change vs veh, CCT5 / RFU, WDR92 / Fold change vs veh, WDR92 / RFU, CUX1 / Fold change vs veh, CUX1 / RFU, TTC7A / Fold change vs veh, TTC7A / RFU, TMEM135 / Fold change vs veh, TMEM135 / RFU, DEPTOR / Fold change vs veh, DEPTOR / RFU, CPM / Fold change vs veh, CPM / RFU, DNAJB6 / Fold change vs veh, DNAJB6 / RFU, CACNA2D3 / Fold change vs veh, CACNA2D3 / RFU, DTX4 / Fold change vs veh, DTX4 / RFU, TFCP2 / Fold change vs veh, TFCP2 / RFU, GMCL1 /// GMCL1P1 / Fold change vs veh, GMCL1 /// GMCL1P1 / RFU, AEBP2 / Fold change vs veh, AEBP2 / RFU, SNHG1 /// SNORD22 /// SNORD25 /// SNORD26 /// SNORD27 /// SNORD28 /// SNORD29 /// SNORD31 / Fold change vs veh, SNHG1 /// SNORD22 /// SNORD25 /// SNORD26 /// SNORD27 /// SNORD28 /// SNORD29 /// SNORD31 / Fold change (Aza/veh), C12orf56 (ProbeSet 11735607_a_at) / Fold change (ACY-1035/veh), C12orf56 (ProbeSet 11735607_a_at) / Fold change (Aza/veh), FGFR1OP (ProbeSet 11751329_s_at) / Fold change (ACY-1035/veh), FGFR1OP (ProbeSet 11751329_s_at) / Fold change (Aza/veh), VPS36 (ProbeSet 11739960_a_at) / Fold change (ACY-1035/veh), VPS36 (ProbeSet 11739960_a_at) / RFU SYPL1 (11715823_x_at) / Fold change /veh SYPL1 (11715823_x_at) / RFU IGFBP7 (11715501_s_at) / Fold change /veh IGFBP7 (11715501_s_at) / RFU REEP3 (11722064_at) / Fold change /veh REEP3 (11722064_at) / RFU IGLL1 (11728026_x_at) / Fold change /veh IGLL1 (11728026_x_at): dose or concentration left out as unconfirmed
Conditions: ProbeSet 11740781_a_at; LIST B

Compound: Nc1ncn([C@@H]2O[C@H](CO)[C@@H](O)[C@H]2O)c(=O)n1 [azacitidine]
- Fold change vs veh, ILF3: 0.96
